Data reported in patent US9034916B2, “Pharmaceutical composition for the prevention or treatment of a neurodegenerative disease, comprising a Daphne genkwa extract or a compound isolated therefrom” (Korea Research Institute of Bioscience and Biotechnology, priority 2011, dated 2015).

Target: T1, Nurr1 protein (Homo sapiens, UniProt P43354)
T1 construct: three kinds of plasmid DNAs, including a DNA comprising Nurr1-LBD and a DNA having β-galactosidase, were transfected into BE(2)C cells; expressed in transfected cells; host or cells: BE(2)C human neuroblastoma cells
T1 sequence (P43354 360-595 limits assumed): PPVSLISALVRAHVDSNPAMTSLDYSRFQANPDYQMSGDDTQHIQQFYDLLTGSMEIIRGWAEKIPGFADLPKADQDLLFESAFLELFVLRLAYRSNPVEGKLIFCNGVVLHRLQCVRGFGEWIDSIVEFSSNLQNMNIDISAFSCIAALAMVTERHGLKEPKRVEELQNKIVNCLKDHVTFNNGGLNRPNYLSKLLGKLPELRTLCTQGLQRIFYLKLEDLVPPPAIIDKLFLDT
Experiment: Nurr1 luciferase reporter assay in BE(2)C cells transfected with Nurr1-LBD
Type: cell-based
Experimental: A gene comprising eight repeats of a nucleotide sequence (5′-CTCGGAGGACAGTACTCCG-3, SEQ ID NO: 1) to which GLA4 gene can bind was linked to the reporter gene luciferase to synthesize a vector. Then, three kinds of plasmid DNAs, including a DNA comprising Nurr1-LBD and a DNA having β-galactosidase, were transfected into BE(2)C cells, and after 6 hours, the cells were treated with 1-200 ppm of the Daphne genkwa extract. The treated cells were incubated in a 5% CO2 incubator at 37° C. for 20 hours, and then subjected to a luciferase assay (FIG. 1).
FIG. 1 is a graphic diagram showing the results of a luciferase assay conducted to examine the change in Nurr1 protein activity as a function of the concentration of the Daphne genkwa extract. As a control, 0.1% DMSO was used, and the increase in activity was expressed as folds of the activity of the control. […]
The effects of the Daphne genkwa extract fractions, obtained using various solvents in Example 2, on Nurr1 protein activity, were analyzed according to a method similar to the method described in Example 3. […]
According to a method similar to the method described in Example 3, the concentration dependences of the effects of genkwanine N and yuanhuacine on the activity of Nurr1 protein were analyzed, and the results of the analysis are shown in FIG. 5.

C=C(C)[C@]12C[C@@H](C)[C@@]34OC(c5ccccc5)(O[C@@H]1[C@@H]3[C@@H]1O[C@]1(CO)[C@@H](O)[C@@]1(O)[C@H]4C[C@H](C)[C@@H]1OC(=O)c1ccccc1)O2 [genkwanine N]
increase of activity of Nurr1 protein (16 nM (corresponding to 0.01 ppm)): 60%

C=C(C)[C@@]12OC3(/C=C/C=C/CCCCC)O[C@@H]1[C@@H]1[C@@H]4O[C@]4(CO)[C@@H](O)[C@]4(O)C(=O)C(C)=C[C@H]4[C@@]1(O3)[C@H](C)[C@H]2OC(=O)c1ccccc1 [yuanhuacine]
increase of activity of Nurr1 protein (15 nM (corresponding to 0.01 ppm)): 70%
